How the values were obtained:
[1] = system: anti-Malachite Green antibodies; assay: competitive ELISA: sensitivity and specificity of the produced anti-Malachite Green antibodies; assay type: binding, rabbit; settings: for Cross-reactivities / Sensitivity: competitive ELISA; for Cross-reactivities: Malachite Green = 100; for Sensitivity: produced anti-Malachite Green antibodies; for level detectable by the antibodies: competitive inhibition ELISA
Protocol: In accordance with this embodiment, the diluted antiserum is added to a Malachite Green Chromatic conjugate-coated solid substrate such as the wells of an assay plate, together with a range of concentrations of free Malachite Green Chromatic as a competitor. Following incubation and washing, bound antibody in the wells is determined. Percent inhibition may be calculated as (1−B/B0)×100 where B is the optical density (OD) of a well with a competitor and B0 is the mean OD of the wells without competitor (control). […] However, for even greater accuracy, the affinity may be alternatively measured at 50% inhibition (IC50). […] Detection of bound antibody may be accomplished by addition of enzyme-labeled anti-immunoglobulin antibodies followed by enzyme substrate. Horseradish peroxidase and its substrate TMB are preferred enzyme/substrate labels. However, it is understood that other enzyme/substrate labels or non-enzyme labels such as radiolabels or chromophores may also be used.
Two female New Zealand White Rabbits, 8 weeks old, were initially immunized by intraperitoneal injection with 0.2 mg of Malachite Green-KLH conjugate as prepared in EXAMPLE 1 mixed with complete Freund's adjuvant. Five booster immunizations were administered at 15-day intervals using the antigen. Blood was collected 7 to 10 days after the last booster immunization in order to check for antibody titers. Titers were checked using both indirect ELISA and competitive ELISA that employed Malachite Green Chromatic-BSA conjugate as the coating antigen and free Malachite Green Chromatic as competitor. […] A typical competitive ELISA procedure is described below: • (1). In the Malachite Green Chromatic-BSA coated 96-well plate, add 50 μL of negative control and each Malachite Green Chromatic standard (1, 5, 10, 25, 50, 100 ng/mL) in duplicate into different wells; add 50 μL of each sample in duplicate into different sample wells. • (2). Add 100 μL of diluted Malachite Green Antibody #1 and mix well by gently tapping the edge of the plate for 10 seconds. • (3). Incubate the plate for 30 min at 37° C. or 1 hr at room temperature (15-25° C.). • (4). Wash the plate 3 times with 250 μL 1×PBS. After the last wash, gently slap the plate dry on paper towels. • (5). Add 150 μL of HRP Goat-against Rabbit antibody conjugate solution. Incubate the plate for 30 min at 37° C. or 1 hr at room temperature (15-25° C.). • (6). Wash the plate 3 times with 250 μL 1×PBS. After the last wash, gently slap the plate dry on paper towels. • (7). Add 100 μL of TMB substrate. • (8). Time the reaction immediately after adding the substrate; mix the solution by gently tapping the edge of the plate. • (9). After incubating for 15 min at room temperature, add 100 μL of 1 M H2SO4 to stop the enzyme reaction before reading the plate at 450 nm.

[2] = system: Leukomalachite Green antibody; settings: Randox antibody raised against Leucomalachite Green immunogen; cited from earlier work
[3] = in fish; cited from earlier work

**Q.** For `CC(C)(C)NCC(O)c1cc(Cl)c(N)c(Cl)c1` (centres unmarked) [Clenbuterol], which Cross-reactivities [1] is on record?
**A.** <0.01%

**Q.** And the Sensitivity [1]?
**A.** >10,000 ng/ml

**Q.** Which Cross-reactivities [1] does the source give for `CN(C)c1ccc(C(=C2C=CC(=[N+](C)C)C=C2)c2ccccc2)cc1` [Malachite Green] here?
**A.** 100%

**Q.** What about the Sensitivity [1] of the same compound?
**A.** 1 ng/mL

**Q.** And the test sensitivity ([1]; produced antibodies, Table 1 summary)?
**A.** 1 ppb

**Q.** What about the cross reactivity [2] of the same compound?
**A.** 26.8%

**Q.** And the “converted into Leucomalachite Green” value [3]?
**A.** ~80%

**Q.** Which “level detectable by the antibodies” value [1] does the source give for `CN(C)c1ccc(C(O)(c2ccccc2)c2ccc(N(C)C)cc2)cc1` [Carbinol] here?
**A.** 0.5 ng/mL

**Q.** Which Cross-reactivities [1] does the source give for `CN(C)c1ccc(C(=C2C=CC(=[N+](C)C)C=C2)c2ccc(N(C)C)cc2)cc1` [Crystal Violet] here?
**A.** 42%

**Q.** What about the Sensitivity [1] of the same compound?
**A.** 10 ng/mL

**Q.** For `O=C(N[C@H](CO)[C@H](O)c1ccc([N+](=O)[O-])cc1)C(Cl)Cl` [Chloramphenicol], which Cross-reactivities [1] is on record?
**A.** <0.01%

**Q.** And the Sensitivity [1]?
**A.** >10,000 ng/ml

**Q.** Which Cross-reactivities [1] does the source give for `Cc1cc(C)nc(NS(=O)(=O)c2ccc(N)cc2)n1` [Sulfumethazine] here?
**A.** <0.01%

**Q.** And the Sensitivity [1]?
**A.** >10,000 ng/ml

**Q.** Which Cross-reactivities [1] does the source give for `CN(C)c1ccc(C(c2ccccc2)c2ccc(N(C)C)cc2)cc1` [Leucomalachite Green] here?
**A.** 1%

**Q.** And the Sensitivity [1]?
**A.** 500 ng/mL

**Q.** What about the “level detectable by the antibodies” value [1] of the same compound?
**A.** 0.5 ng/mL

**Q.** With `O=C1OCCN1/N=C/c1ccc([N+](=O)[O-])o1` [Furazolidone] as the compound, how does the Sensitivity [1] read?
**A.** >10,000 ng/ml

**Q.** Which Cross-reactivities [1] does the source give for `CN(C)c1ccc(C(c2ccc(N(C)C)cc2)c2ccc(N(C)C)cc2)cc1` [Leucocrystal Violet] here?
**A.** <0.01%

**Q.** What about the Sensitivity [1] of the same compound?
**A.** 5000 ng/mL
